From patent US6569864B1, “Pharmaceutical agents containing acyclovir, fusaric acid and derivatives thereof” (Novactyl, Inc., priority 2001, dated 2003)
In brackets after ≈: the same amount, converted by molar mass. Like-named read-outs stand apart in the source and are kept apart here.

Columns and labels:
HSV-2 = assay: plaque reduction assay, HSV-2 in Vero cells; format: cell-based; conditions: for cell death observed under microscope: HSV-2 infected Vero cells
Procedure: (§1) Herpes simplex virus standard strains G (HSV-2) and F (HSV-1) were used in each Example. Virus input for a 6-well plate was 200 pfu/well. HSV susceptible cell line, Vero cells, were used in the virus yield reduction assay. The culture medium for Vero cells is 5% Minimum Essential Medium GIBCO/BRL (MEM) supplemented with 5% fetal bovine serum (200 U/ml penicillin and 200 μg/ml streptomycin).
(§2) To examine the efficacy of fusaric acid on HSV-1 and HSV-2, the susceptible cells were infected with either HSV-1 or HSV-2, then incubated with fusaric acid at concentrations of 0, 1, 10, 30, 60, and 100 μg/ml. The antiviral effect was then determined by plaque reduction assay.
(§3) Confluent cells were washed with PBS and infected with either HSV-1 or HSV-2 (200 pfu/well) for 1 hour at 37° C. The cells were tilled every 20 minutes. After viral inoculum was removed, infected cells were washed with PBS and overlaid with 0.5% methylcellulose in culture medium (equal volume of 1% methylcellulose mixed with 2 times culture medium) containing different doses of testing compounds. The cells were incubated at 37° C. for 2 days for HSV-2 infection and 3 days for HSV-1.
(§4) After plaque size was adequate, the cells were fixed with 20% formalin for 20 minutes and stained with 0.5% crystal violet for 20 minutes. The dye was removed by washing with tap water and left to dry in a fume hood. The plaques were then counted. The experiment was repeated.
(§5) Mean plaque counts in test wells were compared with mean plaque counts in wells not containing the compound (control wells). The antiviral effects of fusaric acid on HSV-1 and HSV-2 are summarized in Table 1 and the antiviral effect of fusaric acid on HSV as determined by plaque reduction assay is shown in FIG. 1.
(§6) EC90-100 (effective concentration giving 90-100% plaque reduction) was approximately 30 μg/ml for both HSV-1 and HSV-2. Control was calculated as the mean plaque count in the drug treated wells divided by the mean plaque count in the control wells. The concentrations giving a 50% reduction in the plaque count of the inoculum (EC50) was then calculated using computer software.
(§7) To examine the efficacy of the combination of fusaric acid and acyclovir on HSV-1 and HSV-2, the plaque reduction assay technique described in Example 1 was employed. The susceptible cells were infected with HSV-1 then incubated with a combination of fusaric acid at concentrations of 0, 1, 10, 30 and 60 μg/ml and […] acyclovir. Similarly, other susceptible cells were infected with HSV-2 then incubated with a combination of […] at concentrations of 0, 1, 10, 30, and 60 μg/ml and 6.1 μM acyclovir. A control was used in each instance, which comprised neither picolinic acid nor acyclovir.

HSV-1 = assay: plaque reduction assay, HSV-1 in Vero cells; format: cell-based; conditions: for cell death observed under microscope: HSV-1 infected Vero cells
Procedure: as §1, §2, §3, §4, §5, §6, §7

[1] = cytotoxicity by neutral red dye uptake assay; format: cell-based; conditions: African green monkey
Procedure: (§8) The cytotoxic effects of picolinic acid and fusaric acid were examined on Vero cells using neutral red dye uptake assay. Confluent Vero cells were cultured in a medium containing various doses of picolinic acid for two days. The testing concentrations were 0, 10, 100, 250, 500 and 1000 μg/ml for picolinic acid and 0, 1, 10, 50, 100 and 500 μg/ml for fusaric acid. Culture medium was removed from confluent Vero cells in a 96-well plate by pump. The cells were then washed once with 200 μl of PBS. 200 μl culture medium containing varying concentrations of either picolinic acid or fusaric acid was added to each well. The cells were then incubated with […] at 37° C. for two days. At the end of incubation, the medium was removed and the cells washed with PBS. 200 μl of 0.01% neutral red in PBS was subsequently added to each well and incubated at 37° C. for 30 minutes The dye was then removed and the cells washed twice with 200 μl PBS per well. The dye was extracted by addition of 200 μl of 50% ethanol/1% glacial acetic acid in PBS to each well and incubated at room temperature for 15 minutes with gentle shaking at 120-150 rpm. The absorbance at 550 nm was read on an enzyme-linked immunosorbent assay (ELISA) reader. The toxicity profiles of picolinic acid and fusaric acid on Vero cells analyzed from optical absorbance readings are shown in Table 2.

Vero cells = assay: cytotoxicity by neutral red dye uptake assay; format: cell-based
Procedure: as §8

herpes labialis = conditions: cited from earlier work

For `CCCCc1ccc(C(=O)O)nc1` [Fusaric acid], the “effect on HSV-2 (in words)” value (HSV-2; 10 μg/ml fusaric acid alone) was “no effect”, the EC90 (HSV-2; Human alphaherpesvirus 2, Vero, read-out: EC90-100 (effective concentration giving 90-100% plaque reduction)) was roughly 30 µg/mL and the “HSV-2 plaque count (% of control)” value (HSV-2; fusaric acid 1 μg/ml) was 103 % of control. For the same compound, the “HSV-2 plaque count (% of control)” value (HSV-2; fusaric acid 10 μg/ml) was 101 % of control, the “HSV-2 plaque count (% of control)” value (HSV-2; fusaric acid 30 μg/ml) was 0 % of control and the “HSV-2 plaque count (% of control)” value (HSV-2; fusaric acid 60 μg/ml) was 0 % of control. For the same compound, the “cell death observed under microscope” value (HSV-2; fusaric acid 60 μg/ml) was “+ (˜20% cell death observed under microscope)”, the “HSV-2 plaque count (% of control)” value (HSV-2; fusaric acid 100 μg/ml) was 0 % of control and the “cell death observed under microscope” value (HSV-2; fusaric acid 100 μg/ml) was “++ (˜50% cell death observed under microscope)”. For the same compound, the “effect on HSV-1 (in words)” value (HSV-1; 10 μg/ml fusaric acid alone) was “no effect”, the EC90 (HSV-1; Human alphaherpesvirus 1, Vero, read-out: EC90-100 (effective concentration giving 90-100% plaque reduction)) was roughly 30 µg/mL and the “HSV-1 plaque count (% of control)” value (HSV-1; fusaric acid 1 μg/ml) was 101 % of control. For the same compound, the “HSV-1 plaque count (% of control)” value (HSV-1; fusaric acid 10 μg/ml) was 105 % of control, the “HSV-1 plaque count (% of control)” value (HSV-1; fusaric acid 30 μg/ml) was 0 % of control and the “HSV-1 plaque count (% of control)” value (HSV-1; fusaric acid 60 μg/ml) was 0 % of control. For the same compound, the “cell death observed under microscope” value (HSV-1; fusaric acid 60 μg/ml) was “+ (˜20% cell death observed under microscope)”, the “HSV-1 plaque count (% of control)” value (HSV-1; fusaric acid 100 μg/ml) was 0 % of control and the “cell death observed under microscope” value (HSV-1; fusaric acid 100 μg/ml) was “++ (˜50% cell death observed under microscope)”. The CC50 at 2 days ([1]; Vero cells, read-out: cytotoxic concentration giving 50% of cell death (CC50)) was roughly 100 µg/mL (≈ 0.558 mM), the “Toxicity (% of control)” value (Vero cells; 1 μg/ml, Vero cells, two days) was 101 % of control and the “Toxicity (% of control)” value (Vero cells; 10 μg/ml, Vero cells, two days) was 76 % of control. For the same compound, the “Toxicity (% of control)” value (Vero cells; 50 μg/ml, Vero cells, two days) was 55 % of control, the “Toxicity (% of control)” value (Vero cells; 100 μg/ml, Vero cells, two days) was 49 % of control and the “Toxicity (% of control)” value (Vero cells; 500 μg/ml, Vero cells, two days) was 16 % of control.

For `Nc1nc2c(ncn2COCCO)c(=O)[nH]1` [Acyclovir, 2-amino-1,9-dihydro-9-[(2-hydroxyethoxy)metyl]-6H-purin-6-one], the “efficacy against herpes labialis and herpes genitalis (in words)” value (herpes labialis; topical formulation) is listed as “not effective”, the “HSV-2 (% of control)” value (HSV-2; acyclovir 6.1 μM, fusaric acid 0 μg/ml) is listed as 42.9 % of control and the “HSV-1 (% of control)” value (HSV-1; acyclovir 1.75 μM, fusaric acid 0 μg/ml) is listed as 62.9 % of control.

For `O=C(O)c1ccccn1` [Picolinic acid, reference compound], the CC50 at 2 days [1] was roughly 800 µg/mL (≈ 6.5 mM), the “Toxicity (% of control)” value (Vero cells; African green monkey, 2 days, 10 μg/ml) was 105 % of control and the “Toxicity (% of control)” value (Vero cells; African green monkey, 2 days, 100 μg/ml) was 95 % of control. The “Toxicity (% of control)” value (Vero cells; African green monkey, 2 days, 250 μg/ml) was 70 % of control, the “Toxicity (% of control)” value (Vero cells; African green monkey, 2 days, 500 μg/ml) was 57 % of control and the “Toxicity (% of control)” value (Vero cells; African green monkey, 2 days, 1000 μg/ml) was 45 % of control.

In the case of `Nc1nc2c(ncn2CCC(CO)CO)c(=O)[nH]1` [denavir], the “reduction of the median duration of the illness” value (herpes labialis; herpes labialis, typically lasting about 6 to 7 days) is given as 6 h.
